Laboratory results reported in PubChem BioAssay AID248 (DTP/NCI, 2004).
Where “and” joins values, the source holds several entries; their conditions need not be identical. Identical values can stand only once. Inconclusive results and toxic doses are left out. Cut-off read from the data, not from the text of the source: active = T/C of 150% or more; inactive = T/C below 125%.

System: L1210 leukemia ip in BDF1 mice, survival T/C
Assay: NCI In Vivo Anticancer Drug Screen. Data for tumor model L1210 Leukemia (intraperitoneal) in B6D2F1 (BDF1) mice
Settings: endpoint: mean survival time, higher = longer survival
Summary of the method: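 Ratio derived from survival: compound-dosed mice over vehicle-dosed mice, all bearing a transplantable tumor.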

[1] = dose: 100.0 mg/kg/injection, schedule: Q01DX009 (ip), vehicle: Klucel (hydroxypropylcellulose) (HPC)
[2] = dose: 200.0 mg/kg/injection, schedule: Q01DX009 (ip), vehicle: Klucel (hydroxypropylcellulose) (HPC)
[3] = dose: 400.0 mg/kg/injection, schedule: Q01DX009 (ip), vehicle: Klucel (hydroxypropylcellulose) (HPC)
[4] = dose: 10.0 mg/kg/injection, schedule: Q01DX001 (ip), vehicle: saline
[5] = dose: 20.0 mg/kg/injection, schedule: Q01DX001 (ip), vehicle: saline
[6] = dose: 100.0 mg/kg/injection, schedule: Q01DX001 (ip), vehicle: saline
[7] = dose: 200.0 mg/kg/injection, schedule: Q01DX001 (ip), vehicle: saline
[8] = dose: 400.0 mg/kg/injection, schedule: Q01DX001 (ip), vehicle: saline
[9] = dose: 100.0 mg/kg/injection, schedule: Q04DX003 (ip), vehicle: saline with Tween-80
[10] = dose: 200.0 mg/kg/injection, schedule: Q04DX003 (ip), vehicle: saline with Tween-80
[11] = dose: 400.0 mg/kg/injection, schedule: Q04DX003 (ip), vehicle: saline with Tween-80
[12] = dose: 50.0 mg/kg/injection, schedule: Q01DX009 (ip), vehicle: Klucel (hydroxypropylcellulose) (HPC)
[13] = dose: 100.0 mg/kg/injection, schedule: Q04DX003 (ip), vehicle: Klucel (hydroxypropylcellulose) (HPC)
[14] = dose: 200.0 mg/kg/injection, schedule: Q04DX003 (ip), vehicle: Klucel (hydroxypropylcellulose) (HPC)
[15] = dose: 100.0 mg/kg/injection, schedule: Q01DX001 (ip), vehicle: other
[16] = dose: 200.0 mg/kg/injection, schedule: Q01DX001 (ip), vehicle: other
[17] = dose: 400.0 mg/kg/injection, schedule: Q01DX001 (ip), vehicle: other
[18] = dose: 50.0 mg/kg/injection, schedule: Q04DX003 (ip), vehicle: Klucel (hydroxypropylcellulose) (HPC)
[19] = dose: 50.0 mg/kg/injection, schedule: Q01DX009 (ip), vehicle: saline with Tween-80
[20] = dose: 100.0 mg/kg/injection, schedule: Q01DX009 (ip), vehicle: saline with Tween-80

Measured: T/C

NC(=S)N/N=C/c1ccc(O)c(C(=O)O)c1
inactive: dose: 15.0 mg/kg/injection, schedule: Q01DX Z (ip), vehicle: methylcellulose (MC) 97 % of control | dose: 30.0 mg/kg/injection, schedule: Q01DX Z (ip), vehicle: methylcellulose (MC) 95 % of control | dose: 60.0 mg/kg/injection, schedule: Q01DX Z (ip), vehicle: methylcellulose (MC) 95 % of control | dose: 120.0 mg/kg/injection, schedule: Q01DX Z (ip), vehicle: methylcellulose (MC) 97 % of control | dose: 250.0 mg/kg/injection, schedule: Q01DX Z (ip), vehicle: methylcellulose (MC) 91 % of control | dose: 375.0 mg/kg/injection, schedule: Q01DX Z (ip), vehicle: methylcellulose (MC) 89 % of control

O=C(N/N=C/c1ccc(Cl)cc1)c1ccccc1NC(=O)C1CC1
inactive: [1] 97 % of control | [2] 87 % of control | [3] 103 % of control

NC(=O)C(O)(C(F)(F)F)C(F)(F)F
inactive: dose: 1.25 mg/kg/injection, schedule: Q01DX009 (ip), vehicle: saline 97 % of control | dose: 2.5 mg/kg/injection, schedule: Q01DX009 (ip), vehicle: saline 111 % of control | dose: 5.0 mg/kg/injection, schedule: Q01DX009 (ip), vehicle: saline 95 % of control | dose: 5.0 mg/kg/injection, schedule: Q04DX003 (ip), vehicle: saline 97 % of control | [4] 102 % of control | dose: 10.0 mg/kg/injection, schedule: Q04DX003 (ip), vehicle: saline 100 % of control | [5] 94 % of control

Oc1ccc(Br)cc1/C=N/N1CCN(/N=C/c2cc(Br)ccc2O)CC1
inactive: [6] 96 % of control | [7] 92 % of control | [8] 90 % of control

O=C(Nc1ccc([N+](=O)[O-])cc1Cl)Oc1ccc(Br)cc1Br
inactive: [9] 100 % of control | [10] 95 % of control | [11] 100 % of control

O=[N+]([O-])c1cc(NS(=O)(=O)c2ccccc2)ccc1NS(=O)(=O)c1ccccc1
inactive: [12] 90 % of control | [1] 90 % of control | [13] 111 % of control | [2] 93 % of control | [14] 97 % of control | dose: 400.0 mg/kg/injection, schedule: Q04DX003 (ip), vehicle: Klucel (hydroxypropylcellulose) (HPC) 94 % of control

BrC(Br)(Br)c1ccc2ccccc2n1
inactive: dose: 50.0 mg/kg/injection, schedule: Q01DX001 (ip), vehicle: other 109 % of control | [15] 103 % of control | [9] 93 % of control | [16] 101 % of control | [10] 93 % of control | [17] 97 % of control | [11] 95 % of control

COC(=O)c1cc(=O)c2cc(C(C)=O)ccc2[nH]1
inactive: [15] 95 % of control | [16] 94 % of control and 89 % of control | [17] 105 % of control and 90 % of control

O=C(O)CCCCCN1C(=O)C2OC3C(=O)N(CCCCCC(=O)O)C(=O)C3C2C1=O (configuration not stated)
inactive: dose: 100.0 mg/kg/injection, schedule: Q04DX003 (ip), vehicle: carboxymethylcellulose (CMC) 95 % of control | dose: 200.0 mg/kg/injection, schedule: Q04DX003 (ip), vehicle: carboxymethylcellulose (CMC) 95 % of control | dose: 400.0 mg/kg/injection, schedule: Q04DX003 (ip), vehicle: carboxymethylcellulose (CMC) 97 % of control

CC(C)OC(=O)C(C)OC(=O)OCCOCCOC(=O)OC(C)C(=O)OC(C)C (configuration not stated)
inactive: [6] 96 % of control | [7] 100 % of control | [8] 100 % of control

Cc1c[n+]([O-])ccc1N=Nc1ccc(N(C)C)cc1
inactive: dose: 25.0 mg/kg/injection, schedule: Q04DX003 (ip), vehicle: Klucel (hydroxypropylcellulose) (HPC) 104 % of control | [18] 110 % of control | [13] 106 % of control and 107 % of control

N#Cc1cnn(C(N)=S)c1N
inactive: dose: 25.0 mg/kg/injection, schedule: Q01DX009 (ip), vehicle: saline 88 % of control | dose: 25.0 mg/kg/injection, schedule: Q04DX003 (ip), vehicle: saline 94 % of control | dose: 50.0 mg/kg/injection, schedule: Q01DX009 (ip), vehicle: saline 97 % of control | dose: 50.0 mg/kg/injection, schedule: Q04DX003 (ip), vehicle: saline 110 % of control | dose: 100.0 mg/kg/injection, schedule: Q04DX003 (ip), vehicle: saline 98 % of control

Cc1ccccc1CN(C)N=O
inactive: [6] 101 % of control | [7] 94 % of control | [8] 91 % of control

CC(=O)OC(c1ccccc1)c1ccccn1 (configuration not stated)
inactive: [19] 105 % of control | [20] 98 % of control | dose: 200.0 mg/kg/injection, schedule: Q01DX009 (ip), vehicle: saline with Tween-80 94 % of control

Nc1nc(=O)n(C2CC(O)C(CO)O2)cc1F (configuration not stated)
inactive: dose: 30.0 mg/kg/injection, schedule: Q01DX Z (ip), vehicle: saline 105 % of control

[Cl][Hg][S]C1CCCC1
inactive: dose: 5.0 mg/kg/injection, schedule: Q01DX001 (ip), vehicle: saline 106 % of control | [4] 101 % of control | [5] 101 % of control

COc1cc(/C=C\[N+](=O)[O-])ccc1OCc1ccccc1
inactive: [12] 94 % of control | [18] 98 % of control | [1] 103 % of control | [13] 104 % of control | [2] 95 % of control | [14] 91 % of control

Cc1cc2c(cc1C)[n+]([O-])c1c(=O)[nH]c(=O)nc-1n2CC(O)C(O)C(O)CO (configuration not stated)
inactive: dose: 100.0 mg/kg/injection, schedule: Q04DX002 (ip), vehicle: saline with Tween-80 98 % of control | dose: 200.0 mg/kg/injection, schedule: Q04DX002 (ip), vehicle: saline with Tween-80 95 % of control

Cc1ncc(O)c(CO)c1O
inactive: dose: 50.0 mg/kg/injection, schedule: Q01DX001 (ip), vehicle: saline 108 % of control | [6] 96 % of control | [7] 96 % of control | [8] 96 % of control

Cc1cc(C)cc(OCCO)c1
inactive: dose: 100.0 mg/kg/injection, schedule: Q04DX002 (ip), vehicle: Klucel (hydroxypropylcellulose) (HPC) 97 % of control | dose: 200.0 mg/kg/injection, schedule: Q04DX002 (ip), vehicle: Klucel (hydroxypropylcellulose) (HPC) 102 % of control | dose: 400.0 mg/kg/injection, schedule: Q04DX002 (ip), vehicle: Klucel (hydroxypropylcellulose) (HPC) 91 % of control

C=C(Br)CNC(=O)Nc1c2ccccc2nc2ccccc12
inactive: dose: 12.5 mg/kg/injection, schedule: Q01DX009 (ip), vehicle: Klucel (hydroxypropylcellulose) (HPC) 86 % of control | dose: 25.0 mg/kg/injection, schedule: Q01DX009 (ip), vehicle: Klucel (hydroxypropylcellulose) (HPC) 88 % of control | [12] 89 % of control | [1] 92 % of control | dose: 150.0 mg/kg/injection, schedule: Q01DX009 (ip), vehicle: Klucel (hydroxypropylcellulose) (HPC) 89 % of control | dose: 300.0 mg/kg/injection, schedule: Q01DX009 (ip), vehicle: Klucel (hydroxypropylcellulose) (HPC) 91 % of control

CN1C(=O)C(C)(C)C(=O)C1(C)C
inactive: [7] 100 % of control | [8] 117 % of control

O=C(Nc1cccc(Cl)c1)C(Br)C(Br)c1ccccc1 (configuration not stated)
inactive: [1] 102 % of control | [2] 103 % of control | [3] 100 % of control

O=C(Oc1ccc(N=Cc2ccccc2)cc1)Oc1ccc(N=Cc2ccccc2)cc1
inactive: [6] 86 % of control | [7] 86 % of control | [8] 95 % of control

CN(C)CCCNC(=S)Nc1ccc(Cl)cc1
inactive: [19] 108 % of control | [20] 108 % of control

CN1CCN(CCNC(c2ccccc2)C(O)c2ccccc2)CC1 (configuration not stated)
inactive: [13] 97 % of control

C[Si](C)(C)C(c1ccccc1)(c1ccccc1)c1ccccc1
inactive: dose: 25.6 mg/kg/injection, schedule: Q04DX002 (ip), vehicle: saline with Tween-80 101 % of control | dose: 64.0 mg/kg/injection, schedule: Q04DX002 (ip), vehicle: saline with Tween-80 90 % of control | [10] 87 % of control | dose: 400.0 mg/kg/injection, schedule: Q04DX002 (ip), vehicle: saline with Tween-80 90 % of control | [11] 88 % of control

c1ccc2c(c1)sc1cc3ccncc3cc12
inactive: dose: 75.0 mg/kg/injection, schedule: Q01DX001 (ip), vehicle: other 110 % of control | dose: 150.0 mg/kg/injection, schedule: Q01DX001 (ip), vehicle: other 101 % of control | dose: 300.0 mg/kg/injection, schedule: Q01DX001 (ip), vehicle: other 107 % of control
